Experimental data published in patent publication US20260226048A1, “MULTI-CYCLIC IRAK AND FLT3 INHIBITING COMPOUNDS AND USES THEREOF” (CHILDREN'S HOSPITAL MEDICAL CENTER, priority 2023, published 2026).

Experiments:
FLT3 ITD, F691L = target: T1, FLT3 ITD, F691L (Homo sapiens, UniProt P36888, F691L, form not given); test: DiscoverX KINOMEscan competition binding assay, FLT3 ITD, F691L; settings: 11-point 3-fold dilution
T1 construct: fused on or other part: DNA tag for qPCR detection (kinase-tagged T7 phage, or made in HEK-293 cells and then tagged with DNA)
T1 sequence (P36888 1-993 F691L): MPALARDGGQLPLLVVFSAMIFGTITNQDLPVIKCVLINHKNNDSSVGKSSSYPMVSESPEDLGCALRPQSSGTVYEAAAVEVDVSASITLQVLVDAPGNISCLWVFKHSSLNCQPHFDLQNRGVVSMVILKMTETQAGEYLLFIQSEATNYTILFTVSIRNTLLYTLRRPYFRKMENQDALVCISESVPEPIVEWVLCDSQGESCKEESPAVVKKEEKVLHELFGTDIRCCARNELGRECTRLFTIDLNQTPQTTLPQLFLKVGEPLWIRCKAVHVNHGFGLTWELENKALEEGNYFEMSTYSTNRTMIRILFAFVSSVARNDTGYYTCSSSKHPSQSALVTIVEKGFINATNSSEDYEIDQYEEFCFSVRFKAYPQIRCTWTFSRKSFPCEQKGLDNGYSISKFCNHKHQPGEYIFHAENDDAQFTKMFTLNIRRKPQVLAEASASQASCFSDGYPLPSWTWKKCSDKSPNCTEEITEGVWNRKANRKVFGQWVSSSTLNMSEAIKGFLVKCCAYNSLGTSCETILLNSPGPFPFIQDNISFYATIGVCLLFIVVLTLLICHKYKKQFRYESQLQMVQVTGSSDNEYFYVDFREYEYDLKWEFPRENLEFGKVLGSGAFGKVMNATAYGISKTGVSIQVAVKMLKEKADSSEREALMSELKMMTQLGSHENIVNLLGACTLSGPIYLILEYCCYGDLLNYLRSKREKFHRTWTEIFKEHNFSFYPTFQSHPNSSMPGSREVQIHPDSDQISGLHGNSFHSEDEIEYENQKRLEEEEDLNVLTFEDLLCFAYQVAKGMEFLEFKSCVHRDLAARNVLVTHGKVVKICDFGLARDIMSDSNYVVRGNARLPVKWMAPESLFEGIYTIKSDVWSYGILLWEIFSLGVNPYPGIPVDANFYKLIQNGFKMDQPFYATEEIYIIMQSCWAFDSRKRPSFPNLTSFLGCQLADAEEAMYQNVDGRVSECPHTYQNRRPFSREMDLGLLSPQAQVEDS
From the text: (§1) […]. […] As a result, the data report thermodynamic interaction affinities (Kd values), rather than IC50 values that are dependent on ATP concentrations. The assay uses a DNA-tagged version of the protein kinase, and an immobilized ligand bound to a solid support. Compounds that directly or indirectly prevent kinase binding to the immobilized ligand reduce the amount of kinase captured on the solid support, which is detected using an ultra-sensitive qPCR method. Affinity constants reported from the assay have been reported to be independent of the immobilized ligand used that is coupled to the solid support (See supplemental information in Fabian, M. A. et. al., (2005) Nat. Biotechnol. 23, 329-336; Wodicka, L. M. et. al., (2010) Chem. Biol. 17, 1241-1249.)
(§2) Kinase-tagged T7 phage strains were prepared in an E. coli host derived from the BL21 strain. E. coli were grown to log-phase and infected with T7 phage and incubated with shaking at 32° C. until lysis. The lysates were centrifuged and filtered to remove cell debris. The remaining kinases were produced in HEK-293 cells and subsequently tagged with DNA for qPCR detection. Streptavidin-coated magnetic beads were treated with biotinylated small molecule ligands for 30 minutes at room temperature to generate affinity resins for kinase assays. The liganded beads were blocked with excess biotin and washed with blocking buffer (SeaBlock (Pierce), 1% BSA, 0.05% Tween 20, 1 mM DTT) to remove unbound ligand and to reduce non-specific binding. […] Test compounds were prepared as 111× stocks in 100% DMSO. Kds were determined using an 11-point 3-fold compound dilution series with three DMSO control points. All compounds for Kd measurements are distributed by acoustic transfer (non-contact dispensing) in 100% DMSO. The compounds were then diluted directly into the assays such that the final concentration of DMSO was 0.9%. All reactions were performed in polypropylene 384-well plates. Each was a final volume of 0.02 mL. […] The kinase concentration in the eluates was measured by qPCR.
(§3) Binding constants (Kds) were calculated with a standard dose-response curve using the Hill equation. The Hill Slope was set to −1. Curves were fitted using a non-linear least square fit with the Levenberg-Marquardt algorithm.

FLT3 R834Q = target: T2, FLT3 R834Q (Homo sapiens, UniProt P36888, R834Q); test: DiscoverX KINOMEscan competition binding assay, FLT3 R834Q; settings: 11-point 3-fold dilution
T2 construct: purchased DiscoverX (KINOMEscan); host or cells: E. coli BL21-derived host (T7 phage) or HEK-293
T2 sequence (P36888 27-993 R834Q): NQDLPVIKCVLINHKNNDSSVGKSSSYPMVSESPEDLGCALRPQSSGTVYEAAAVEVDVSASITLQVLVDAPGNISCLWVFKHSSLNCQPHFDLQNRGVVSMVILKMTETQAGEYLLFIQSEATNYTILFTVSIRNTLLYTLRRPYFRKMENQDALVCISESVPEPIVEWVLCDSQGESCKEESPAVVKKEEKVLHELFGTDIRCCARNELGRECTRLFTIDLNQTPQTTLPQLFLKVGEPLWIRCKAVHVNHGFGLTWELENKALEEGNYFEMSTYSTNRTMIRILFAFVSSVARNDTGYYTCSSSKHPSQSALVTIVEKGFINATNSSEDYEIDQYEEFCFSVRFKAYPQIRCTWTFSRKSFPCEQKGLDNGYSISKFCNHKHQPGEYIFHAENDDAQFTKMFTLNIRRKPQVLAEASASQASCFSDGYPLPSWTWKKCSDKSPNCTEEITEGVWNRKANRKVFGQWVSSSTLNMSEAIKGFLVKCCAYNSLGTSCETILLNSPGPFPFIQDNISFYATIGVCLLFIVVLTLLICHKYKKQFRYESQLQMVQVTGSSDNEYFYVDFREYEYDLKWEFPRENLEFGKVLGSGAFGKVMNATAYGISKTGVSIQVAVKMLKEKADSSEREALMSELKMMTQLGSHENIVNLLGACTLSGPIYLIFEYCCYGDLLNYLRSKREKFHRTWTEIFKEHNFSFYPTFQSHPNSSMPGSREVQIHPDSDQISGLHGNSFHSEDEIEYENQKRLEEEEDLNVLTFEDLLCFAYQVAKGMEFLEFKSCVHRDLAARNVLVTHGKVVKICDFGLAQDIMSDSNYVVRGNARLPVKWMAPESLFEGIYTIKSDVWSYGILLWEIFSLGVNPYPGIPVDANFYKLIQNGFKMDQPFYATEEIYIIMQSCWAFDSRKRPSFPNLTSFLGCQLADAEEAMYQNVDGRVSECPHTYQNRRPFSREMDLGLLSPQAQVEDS
From the text: as §1, §2, §3

Structure (SMILES)	Kd (FLT3 ITD, F691L) [nM]	Kd (FLT3 R834Q) [nM]
COc1cc2ncc(-c3nc(N[C@H]4CNCC[C@@H]4F)ncc3F)n2nc1C1CC1 [Compound 1a, 4-(6-cyclopropyl-7-methoxyimidazo[1,2-b]pyridazin-3-yl)-5-fluoro-N-((3S,4S)-4-fluoropiperidin-3-yl)pyrimidin-2-amine]	< 0.17	< 0.17
FC(F)COc1cc2ncc(-c3ccnc(N[C@H]4CNCC[C@@H]4F)n3)n2nc1C1CC1 [Compound 4a, 4-(6-cyclopropyl-7-(2,2-difluoroethoxy)imidazo[1,2-b]pyridazin-3-yl)-N-((3 S,4S)-4-fluoropiperidin-3-yl)pyrimidin-2-amine]	< 0.17	0.69
COc1cc2ncc(-c3nc(N[C@H]4CNCC[C@@H]4F)ncc3F)n2nc1C(C)(C)O [Compound 45a, 2-(3-(5-fluoro-2-(((3S,4S)-4-fluoropiperidin-3-yl)amino)pyrimidin-4-yl)-7-methoxyimidazo[1,2-b]pyridazin-6-yl)propan-2-ol]	0.19	5.9
CC(C)(O)c1ccc2ncc(-c3nc(N[C@H]4CNCC[C@@H]4F)ncc3F)n2c1 [Compound 46a, 2-(3-(5-fluoro-2-(((3S,4S)-4-fluoropiperidin-3-yl)amino)pyrimidin-4-yl)imidazo[1,2-a]pyridin-6-yl)propan-2-ol]	0.22	4.4
COc1cc2ncc(-c3nc(N[C@H]4CNCC[C@@H]4F)ncc3F)n2nc1C1COC1 [Compound 92a, 5-fluoro-N-((3S,4S)-4-fluoropiperidin-3-yl)-4-(7-methoxy-6-(oxetan-3-yl)imidazo[1,2-b]pyridazin-3-yl)pyrimidin-2-amine]	< 0.17	0.77
CC(C)(O)c1cn2c(-c3nc(N[C@H]4CNCC[C@@H]4F)ncc3F)cnc2cn1 [Compound 100a, 2-(3-(5-fluoro-2-(((3S,4S)-4-fluoropiperidin-3-yl)amino)pyrimidin-4-yl)imidazo[1,2-a]pyrazin-6-yl)propan-2-ol]	3.4	40
COc1cc2ncc(-c3nc(N[C@H]4CNCC[C@@H]4F)ncc3F)n2nc1N1CCCS1(=O)=O [Compound 112a, 2-(3-(5-fluoro-2-(((3S,4S)-4-fluoropiperidin-3-yl)amino)pyrimidin-4-yl)-7-methoxyimidazo[1,2-b]pyridazin-6-yl)isothiazolidine 1,1-dioxide]	< 0.17	0.28
